Laboratory results reported in US7547710B2, “Fused heterocyclic compounds as peptidase inhibitors” (Takeda Pharmaceutical Company Limited, priority 2002, dated 2009).

target: T1, Caco-2-derived dipeptidyl peptidase IV (Homo sapiens, UniProt P27487); experiment: Determination of Caco-2-derived dipeptidyl peptidase IV inhibitory activity; format: biochemical; conditions: Caco-2 crude enzyme solution, substrate Gly-Pro-p-NA, 37° C., absorbance 405 nm after 0 hr. and 3 hrs.
T1 construct: A dipeptidyl peptidase IV crude enzyme solution was prepared from cultured Caco-2 (ATCC HTB-37) cells; endogenous in cells; host or cells: Caco-2 (ATCC HTB-37); Triton X-100 extract, Sephadex G-200 fractions
T1 sequence (P27487 whole entry): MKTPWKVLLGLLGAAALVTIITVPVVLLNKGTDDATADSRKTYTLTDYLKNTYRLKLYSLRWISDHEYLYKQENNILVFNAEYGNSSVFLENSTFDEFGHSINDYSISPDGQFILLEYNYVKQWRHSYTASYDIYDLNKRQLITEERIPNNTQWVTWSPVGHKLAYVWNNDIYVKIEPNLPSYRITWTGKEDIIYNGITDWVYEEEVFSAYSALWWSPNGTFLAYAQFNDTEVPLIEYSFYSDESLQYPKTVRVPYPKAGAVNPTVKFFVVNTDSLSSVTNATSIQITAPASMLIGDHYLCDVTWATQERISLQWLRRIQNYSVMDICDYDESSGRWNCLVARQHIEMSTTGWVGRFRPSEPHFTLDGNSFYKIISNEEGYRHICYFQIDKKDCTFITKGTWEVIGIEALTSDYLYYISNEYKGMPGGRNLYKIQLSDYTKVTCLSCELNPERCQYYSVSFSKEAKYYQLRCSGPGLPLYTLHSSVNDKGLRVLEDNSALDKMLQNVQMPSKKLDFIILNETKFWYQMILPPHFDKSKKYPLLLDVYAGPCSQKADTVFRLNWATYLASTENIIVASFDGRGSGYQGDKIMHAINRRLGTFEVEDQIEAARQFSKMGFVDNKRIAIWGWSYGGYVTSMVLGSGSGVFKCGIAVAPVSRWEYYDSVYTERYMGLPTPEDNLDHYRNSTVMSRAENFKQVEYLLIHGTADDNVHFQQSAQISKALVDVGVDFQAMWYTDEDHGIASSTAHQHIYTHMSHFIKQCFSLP
Protocol: The enzyme activity of dipeptidyl peptidase IV present in human colonic adenocarcinoma-derived cell line Caco-2 cell membrane has been already reported by Yong S. Chung et al. (Cancer Research, vol. 45, pp. 2976-2982, 1985).
A dipeptidyl peptidase IV crude enzyme solution was prepared from cultured Caco-2 (ATCC HTB-37) cells. The Caco-2 cells were cultured in D-MEM medium (manufactured by Nissui Pharmaceutical Co., Ltd.) containing 10% FBS (fetal bovine serum (manufactured by GIBCO)). […]
An N,N-dimethylformamide solution (5 μl) containing the test compound was added to a mixture of water (25 μl), 1M Tris-hydrochloride buffer (10 μl, pH 7.5) and 1 mM aqueous glycylprolyl-p-nitroanilide (Gly-Pro-p-NA; manufactured by Backem AG) solution (50 μl) to prepare a mixed solution. […] The absorbance after 0 hr. and 3 hrs. was measured using a microplate reader (Multiskan Bichromatic; manufactured by Labsystems) at a wavelength of 405 nm and an increase (ΔODs) was determined. At the same time, an increase (ΔODc) in absorbance of the reaction mixture without the test compound, and an increase (ΔODb) in absorbance of the reaction mixture without the test compound and the enzyme were determined and percent inhibition of dipeptidyl peptidase IV enzyme activity was calculated from the following formula: {1−[(ΔODs−ΔODb)/(ΔODc−ΔODb)]}×100 […]

`CC(C)Cc1nc2ccc(Cl)cc2c(-c2ccccc2)c1CN` [Example 1, (6-chloro-2-isobutyl-4-phenylquinolin-3-yl)methylamine] showed an IC50 of 710 nM.

target: T2, dipeptidyl peptidase IV in rat plasma (Rattus norvegicus, UniProt P14740); experiment: Determination of dipeptidyl peptidase IV inhibitory activity in rat plasma; format: biochemical; conditions: SD rat plasma, substrate Gly-Pro-p-NA, 30° C., absorbance 405 nm after 0 hr. and 1 hr.
T2 construct: from tissue; host or cells: SD rat blood plasma
T2 sequence (P14740 37-767 limits assumed): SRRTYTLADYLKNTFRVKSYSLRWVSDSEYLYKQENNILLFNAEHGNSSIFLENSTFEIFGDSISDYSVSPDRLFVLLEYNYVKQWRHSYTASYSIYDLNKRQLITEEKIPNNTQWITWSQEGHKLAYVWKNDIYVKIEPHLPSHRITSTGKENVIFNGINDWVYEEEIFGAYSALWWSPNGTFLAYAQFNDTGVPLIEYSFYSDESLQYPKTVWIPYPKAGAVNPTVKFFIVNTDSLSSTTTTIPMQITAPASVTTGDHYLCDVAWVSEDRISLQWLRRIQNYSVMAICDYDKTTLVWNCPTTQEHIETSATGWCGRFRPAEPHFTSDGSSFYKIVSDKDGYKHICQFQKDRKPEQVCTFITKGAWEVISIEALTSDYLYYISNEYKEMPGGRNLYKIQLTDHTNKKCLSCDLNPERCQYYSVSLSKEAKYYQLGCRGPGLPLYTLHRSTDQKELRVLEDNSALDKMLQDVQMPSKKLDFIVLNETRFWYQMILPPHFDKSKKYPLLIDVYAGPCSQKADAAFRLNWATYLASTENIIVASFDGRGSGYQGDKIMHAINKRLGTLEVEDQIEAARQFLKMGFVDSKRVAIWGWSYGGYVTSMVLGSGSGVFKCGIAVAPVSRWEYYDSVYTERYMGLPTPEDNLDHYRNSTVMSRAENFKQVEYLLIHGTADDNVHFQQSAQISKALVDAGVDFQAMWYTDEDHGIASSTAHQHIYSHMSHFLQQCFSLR
Protocol: The reaction was carried out according to the method of Raymond et al. (Diabetes, vol. 47, pp. 1253-1258, 1998) using a 96 well flat-bottomed plate at 30° C. An N,N-dimethylformamide solution (1 μl) containing the test compound was added to a mixture of water (69 μl), 1 M Tris-hydrochloride buffer (10 μl, pH 7.5) and 1 mM aqueous Gly-Pro-p-NA solution (100 μl) to prepare a mixed solution. Plasma (20 μl) prepared from blood of SD rat by a conventional method was added to the above-mentioned mixed solution and the enzyme reaction was started at 30° C. The absorbance after 0 hr. and 1 hr. was measured using a microplate reader at a wavelength of 405 nm and an increase (ΔODs) was determined. At the same time, an increase (ΔODc) in absorbance of the reaction mixture without the test compound, and an increase (ΔODb) in absorbance of the reaction mixture without the test compound and the enzyme were determined and percent inhibition of dipeptidyl peptidase IV enzyme activity was calculated from the following formula: {1−[(ΔODs−ΔODb)/(ΔODc−ΔODb)]}×100
The dipeptidyl peptidase IV inhibitory activity of the test compound group is expressed in IC50 value (μM) and shown in Table 2.

For `CC(C)Cc1nc2ccc(Cl)cc2c(-c2ccccc2)c1CN` [Example 1, (6-chloro-2-isobutyl-4-phenylquinolin-3-yl)methylamine], the IC50 was 1600 nM.

tested on: not given; experiment: not given; conditions: not given

First: CC(C)Cc1nc2ccc(Cl)cc2c(-c2ccccc2)c1CN [Example 1, (6-chloro-2-isobutyl-4-phenylquinolin-3-yl)methylamine]
Second: CC(C)Cc1nc2ccc(Br)cc2c(-c2ccccc2)c1CN [Example 2, (6-bromo-2-isobutyl-4-phenylquinolin-3-yl)methylamine]
The melting point of the first is lower: 114 to 116 °C for the first, 129 to 130 °C for the second.

First: CC(C)Cc1nc2ccc(C#N)cc2c(-c2ccccc2)c1CN [Example 3, 3-(aminomethyl)-2-isobutyl-4-phenylquinoline-6-carbonitrile]
Second: COc1ccc2nc(CC(C)C)c(CN)c(-c3ccccc3)c2c1 [Example 25, (2-isobutyl-6-methoxy-4-phenylquinolin-3-yl)methylamine]
The melting point of the first is higher: 128 to 130 °C for the first, 73 to 76 °C for the second.

First: COC(=O)c1ccc2nc(CC(C)C)c(CN)c(-c3ccccc3F)c2c1 [Example 29, Methyl 3-(aminomethyl)-4-(2-fluorophenyl)-2-isobutylquinoline-6-carboxylate]
Second: CC(C)Cc1nc2ccc(OCC(N)=O)cc2c(-c2cccc(F)c2)c1CN [Example 38, 2-{[3-(aminomethyl)-4-(3-fluorophenyl)-2-isobutylquinolin-6-yl]oxy}acetamide]
The melting point of the first is higher: 138 to 139 °C for the first, 106 to 109 °C for the second.

First: Cc1ccc(-c2c(CN)c(CC(C)C)nc3ccc(OCc4ccccc4)cc23)cc1 [Example 30, [6-(benzyloxy)-2-isobutyl-4-(4-methylphenyl)quinolin-3-yl]methylamine]
Second: CC(C)(C)Cc1nc2ccc(OCC(N)=O)cc2c(-c2ccccc2)c1CN [Example 40, 2-{[3-(aminomethyl)-2-(2,2-dimethylpropyl)-4-phenylquinolin-6-yl]oxy}acetamide]
The melting point of the first is lower: 119 to 120 °C for the first, 152 to 154 °C for the second.

First: CC(C)Cc1nc2ccc(OCC(N)=O)cc2c(-c2cccs2)c1CN [Example 33, 2-{[3-(aminomethyl)-2-isobutyl-4-thien-2-ylquinolin-6-yl]oxy}acetamide]
Second: NCc1c(CC2CCCC2)nc2ccc(OCC(N)=O)cc2c1-c1ccccc1 [Example 42, 2-{[3-(aminomethyl)-2-(cyclopentylmethyl)-4-phenylquinolin-6-yl]oxy}acetamide]
The melting point of the first is lower: 156 to 157 °C for the first, 159 to 160 °C for the second.
